Where a name gives a salt, the structure may show the parent alone.
Test system: production of TNF-α by PBMC in response to stimulation by LPS
Assay: TNF-α assay
Format: cell-based, human
Details: Homo sapiens, LPS 1 μg/ml, 72 hours, sandwich ELISA
Procedure: Peripheral blood mononuclear cells (herein referred as PBMC), in response to stimulation by lipopolysaccharide (hereinafter LPS), a gram-negative bacterial endotoxin, produce various […], in particular human TNF-α. Inhibition of the activation of PBMC can therefore be measured by the level of suppression of the production of TNF-α by PBMC in response to stimulation by LPS.
Such inhibition measurement was performed as follows: PBMC were isolated from heparinized peripheral blood by density gradient centrifugation over Lymphoprep (commercially available from Nycomed, Norway). LPS was then added to the PMBC suspension in complete medium (10^6 cells/ml) at a final concentration of 1 μg/ml. The pteridine derivative to be tested was added at different concentrations (0.1 μM, 1 μM and 10 μM) and the cells were incubated at 37° C. for 72 hours in 5% CO2. The supernatants were collected, then TNF-α concentrations were measured with respectively an anti-TNF-α antibody in a sandwich ELISA (Duo Set ELISA human TNFα, commercially available from R&D Systems, United Kingdom). The calorimetric reading of the ELISA was measured by a Multiskan RC plate reader (commercially available from ThermoLabsystems, Finland) at 450 nm (reference wavelength: 690 nm). Data analysis was performed with Ascent software 2.6. (also from ThermoLabsystems, Finland): a standard curve (recombinant human TNFα) was drawn and the amount (pg/ml) of each sample on the standard curve was determined.
The % suppression of human TNFα production by the pteridine derivatives of the invention (drugs) was calculated using the formula: [formula]

SMILES	IC50 [nM]
COc1ccc(-c2cnc3nc(N)nc(N4CCN(CCN(C)C)CC4)c3n2)cc1OC [Example 181, 2-amino-6-(3,4-dimethoxyphenyl)-4-(4-(2-dimethylaminoethyl)-piperazin-1-yl)-pteridine trihydrochloride salt]	8800
COc1ccc(-c2cnc3nc(N)nc(N4CCN(CCCN(C)C)CC4)c3n2)cc1OC [Example 182, 2-amino-6-(3,4-dimethoxyphenyl)-4-(4-(3-dimethylaminopropyl)-piperazin-1-yl)pteridine trihydrochloride salt]	4800

Same assay, conditions: LPS 1 μg/ml, 72 hours, sandwich ELISA

SMILES	IC50 [nM]
COc1ccc(-c2cnc3nc(N)nc(N4CCN(C(C)=O)CC4)c3n2)cc1OC [Example 8, 2-amino-4-(N-acetylpiperazin-1-yl)-6-(3,4-dimethoxyphenyl)pteridine]	400
COc1ccc(-c2cnc3nc(N)nc(N4CCN(C(=O)c5cc(F)c(Cl)nc5Cl)CC4)c3n2)cc1OC [Example 40]	700
COc1ccc(-c2cnc3nc(N)nc(N4CCN(C(=O)[C@@H]5CCCN5)CC4)c3n2)cc1OC [Example 62, 2-amino-4-[N-(pyrrolidin-2-(S)-yl)carbonyl-piperazin-1-yl]-6-(3,4-dimethoxy-phenyl)pteridine]	7600
COC(=O)c1ccc(C(=O)N2CCN(c3nc(N)nc4ncc(-c5ccc(OC)c(OC)c5)nc34)CC2)cc1 [Example 112, 2-amino-4-[N-[4-(methoxycarbonyl)benzoyl]-piperazin-1-yl]-6-(3,4-dimethoxy-phenyl)pteridine]	280
COc1ccc(-c2cnc3nc(N)nc(N4CCN(C(=O)CN(C)C)CC4)c3n2)cc1OC [Example 113, 2-amino-4-[N-[4-(dimethylamino)acetyl]-piperazin-1-yl]-6-(3,4-dimethoxy-phenyl)pteridine]	3200
CCN(C(=O)N1CCN(c2nc(N)nc3ncc(-c4ccc(OC)c(OC)c4)nc23)CC1)c1ccccc1 [Example 118, 2-amino-4-(N-ethyl-N-phenyl-carbamoyl-piperazin-1-yl)-6-(3,4-dimethoxyphenyl)pteridine]	70
CCOC(=O)CN1CCN(c2nc(N)nc3ncc(-c4ccc(OC)c(OC)c4)nc23)CC1 [Example 135, 2-amino-4-(2-(piperazin-1-yl)-acetic acid ethyl ester)-6-(3,4-dimethoxyphenyl)pteridine]	270
COc1ccc(-c2cnc3nc(N)nc(N4CCN(Cc5ccc(C)cc5)CC4)c3n2)cc1OC [Example 140, 2-amino-4-((4-methylbenzyl)piperazin-1-yl)-6-(3,4-dimethoxyphenyl)pteridine]	1300
COc1ccc(-c2cnc3nc(N)nc(N4CCN(Cc5ccc6c(c5)OCO6)CC4)c3n2)cc1OC [Example 143, 2-amino-4-(piperonyl-piperazin-1-yl)-6-(3,4-dimethoxyphenyl)pteridine]	800
COc1ccc(-c2cnc3nc(N)nc(N4CCN(Cc5cccnc5)CC4)c3n2)cc1OC [Example 156]	400
COc1ccc(-c2cnc3nc(N)nc(N4CCN(CC5OCCO5)CC4)c3n2)cc1OC [Example 170, 2-amino-6-(3,4-dimethoxyphenyl)-4-(1,3-dioxolan-2-yl-methylpiperazin-1-yl)pteridine]	400

— patent US20070032477A1, “Pteridine derivatives useful for making pharmaceutical compositions” (priority 2003, published 2007)
